We go through eight molecules from patent US6531288B1, “Methods to identify compounds that affect the expression level of the syntaxin-1 A encoding gene” (University of British Columbia, priority 1999, dated 2003).

Starred links: 1 amine or outer side, 2 acyl side, 3 side chain; linkers in the order of their positions; H or OH if unused. Positions of bridges follow the written chain, without caps; N, C: chain ends. Non-standard residues stand in square brackets, D forms with d. Residues, ends and D or L forms follow the SMILES beside them. Chains are numbered I, II in the order given. Actinocin(9to1) = Cc1c2oc3c(C)ccc(C(=O)[*:1])c3nc-2c(C(=O)[*:2])c(N)c1=O; NMeV = CN[C@H](C(=O)O)C(C)C; Sar = CNCC(=O)O

Assay [1] deals with syntaxin-1A. The experiment in a line: Syntaxin-1A expression (mRNA/protein) in HEK293 cells transfected with the α1A P/Q type calcium channel. The class given is cell-based, human. The conditions noted are these: for calcium dependent induction of syntaxin-1A: α1A transfected cells.
The test system of assay [2] is syntaxin-1A. The assay is described as follows: Syntaxin-1A expression in untransfected HEK293 cells treated with agents that alter intracellular calcium. The class given is cell-based. The conditions noted are these: for syntaxin-1A mRNA levels: untransfected cells / absence of α1A transfection. (Calcium flux is commonly read through the fluorescence of an indicator in the cells.)

The subject of assay [3] is syntaxin-1A. The assay is described as follows: Syntaxin-1A expression in cerebellar granule cells (endogenous P/Q type channels). The class given is cell-based. The protocol:
The foregoing results in HEK293 transfected cells were correlated with the endogenous P/Q type channels in neurons. Syntaxin-1A is basally expressed in cerebellar granule cells, but this is inhibited by ω Agatoxin IVA, which is known to inhibit calcium P/Q type channels specifically. […] Treatment of these cerebellar granule cells, which had been incubated in ω Agatoxin IVA with thapsigargin recovered the syntaxin-1A expression.
Syntaxin-1A expression was inhibited by the same agents as had inhibited it in HEK293 cells including inhibitors of ryanodine —or IP3—induced calcium release from stores, of CaM kinase II/IV, and of PKA, or MAPKK.

Take `CC(=O)OCOC(=O)CN(CC(=O)OCOC(C)=O)c1ccccc1OCCOc1ccccc1N(CC(=O)OCOC(C)=O)CC(=O)OCOC(C)=O` [BAPTA-AM]: the “calcium dependent induction of syntaxin-1A” value in the assay on syntaxin-1A [1] is “blocked”.
The same measure, in the same setting: to `CC(=O)OCOC(=O)CN(CCOCCOCCN(CC(=O)OCOC(C)=O)CC(=O)OCOC(C)=O)CC(=O)OCOC(C)=O` [EGTA-AM] belongs “blocked”.
Turning to `Cc1c2oc3c(C)ccc(C(=O)N[C@@H]4C(=O)N[C@H](C(C)C)C(=O)N5CCC[C@H]5C(=O)N(C)CC(=O)N(C)[C@@H](C(C)C)C(=O)O[C@@H]4C)c3nc-2c(C(=O)N[C@@H]2C(=O)N[C@H](C(C)C)C(=O)N3CCC[C@H]3C(=O)N(C)CC(=O)N(C)[C@@H](C(C)C)C(=O)O[C@@H]2C)c(N)c1=O` [actinomycin D] (I: T[dV]P[Sar][NMeV] / II: T[dV]P[Sar][NMeV]; ester I:1-I:C, II:1-II:C; linker I:N-II:N via Actinocin(9to1)), the “mRNA corresponding to syntaxin-1A” value in the assay with syntaxin-1A [1] (HEK293 cells transfected with the α1A P/Q type calcium channel) is reported as “inhibited”.
Regarding `Cn1c(=O)c2c(ncn2C)n(C)c1=O` [caffeine], the “calcium release from ryanodine- and IP3-sensitive stores” value in the assay with syntaxin-1A [2] (untransfected cells) is “activated”. Also, the “syntaxin-1A mRNA levels” value with syntaxin-1A [2] is on record as “stimulated”.
The like results for `C[N+](C)(C)CCOC(N)=O` [carbachol] were, in that order, “activated” and “stimulated”.
Turning to `C[C@H](CCC(=O)O)C[C@H](C)C[C@H](C)C(=O)/C=C(\O)[C@H](C)C[C@H](C)C/C=C/[C@@H](C)[C@@H](O)[C@@H](C)[C@@H](O)C[C@@H]1CC[C@@](C)([C@H]2CC[C@@](C)([C@@H](C)O)O2)O1` [ionomycin], the “levels giving maximal activation of syntaxin-1A production” value in the assay with syntaxin-1A [2] is 50 to 200 nM.
Consider `C/C=C(/C)C(=O)O[C@H]1C(C)=C2[C@H]([C@@H]1OC(=O)CCCCCCC)[C@@](C)(OC(C)=O)C[C@H](OC(=O)CCC)[C@@]1(O)[C@H]2OC(=O)[C@@]1(C)O` [thapsigargin], for which the syntaxin-1A expression entry in the assay on syntaxin-1A [2] (untransfected cells) is given as “stimulated”. For the same molecule, the “syntaxin-1A expression after P/Q block” value with syntaxin-1A [3] (cerebellar granule cells which had been incubated in ω Agatoxin IVA) is “recovered”.
On to ω Agatoxin IVA, for which, in the assay on syntaxin-1A [3] (cerebellar granule cells), the “syntaxin-1A expression (basal, calcium dependent)” value is “inhibited”.
